Article PMC8247983 (Chemmedchem, 2021)

Target: hBChE (Homo sapiens, UniProt P06276)
Assay: Ellman's assay
Assay type: biochemical

hBChE, sequence (P06276 29-602): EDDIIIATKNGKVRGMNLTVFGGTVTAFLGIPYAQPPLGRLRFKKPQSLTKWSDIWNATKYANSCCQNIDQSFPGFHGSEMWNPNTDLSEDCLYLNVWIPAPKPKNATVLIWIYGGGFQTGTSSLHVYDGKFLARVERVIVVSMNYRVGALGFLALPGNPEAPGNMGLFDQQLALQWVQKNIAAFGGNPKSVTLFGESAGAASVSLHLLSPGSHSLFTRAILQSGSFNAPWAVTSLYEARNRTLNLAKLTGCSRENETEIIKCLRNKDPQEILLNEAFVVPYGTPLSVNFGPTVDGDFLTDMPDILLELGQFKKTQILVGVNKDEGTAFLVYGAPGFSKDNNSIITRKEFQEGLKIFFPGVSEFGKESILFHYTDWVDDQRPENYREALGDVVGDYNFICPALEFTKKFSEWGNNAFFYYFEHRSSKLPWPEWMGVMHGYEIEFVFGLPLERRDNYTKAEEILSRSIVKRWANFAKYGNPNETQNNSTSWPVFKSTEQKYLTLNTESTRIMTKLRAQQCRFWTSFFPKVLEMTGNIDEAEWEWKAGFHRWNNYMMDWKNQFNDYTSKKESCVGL

CN1c2ccc(OC(=O)NCCCCCCN3CCOC(CF)C3)cc2CN2CCc3ccccc3C21 (racemic) [compound 2, 13‐Methyl‐5,8,13,13a‐tetrahydro‐6H‐isoquinolino[1,2‐b]quinazolin‐10‐yl‐{6‐[2‐(fluoromethyl)morpholino]‐hexyl}carbamate]
IC50: 66.6 nM
